Measured values published in PMC9496553, “The Dual-Targeted Peptide Conjugated Probe for Depicting Residual Nasopharyngeal Carcinoma and Guiding Surgery” (Biosensors, 2022).
No end group written: not given here.

What was measured:
Format in all cases: in vivo, BALB/c nude mice
[1] = test system: 5-8F tumours; assay: Biodistribution and tumour selectivity by whole-body fluorescence imaging, subcutaneous tumour model; conditions: for maximum TBR (tumour-to-background ratio): i.v. 12 μM, tumour region vs ipsilateral auricle
Protocol: (§1) Animal experiments were performed in accordance with the approval of Animal Welfare and Ethics Committee of Jinan University (approval number: IACUC-20211210-03). Four-week-old BALB/c nude mice were purchased from the Beijing Vital River Laboratory Animal Technology Co., Ltd. (Beijing, China). Subcutaneous tumour models received a subcutaneous injection of 5-8F (5.0 × 10^6 in 200 μL PBS) in the lower right flank. Experiments were started 10–14 days after tumour implantation, when the tumour diameter was 6–8 mm. Tumour volumes were measured using a Vernier calliper and calculated using the formula for a hemiellipsoid (volume = 0.5236 × length × width^2), as this form best approximated the tumour shape. For orthotopic tumour models, mice were anaesthetised using isoflurane with a precision vaporiser at 1% and injected with 25 μL of 1.1 × 10^5 5-8F-fLuc cells into the nasopharynx using a 28-gauge needle, as previously reported. Mice were fed a specific pathogen-free unit, and animal surgery was performed in a sterile hood. Orthotopic tumours were visualised and tracked by bioluminescence imaging (BLI) using an IVIS® Spectrum In Vivo Imaging System (PerkinElmer, Waltham, MA, USA). Specifically, mice received an intraperitoneal injection of 3 mg/mL luciferin bioluminescent substrate (Perkin Elmer, Waltham, MA, USA) 4 min before imaging.
Mice with subcutaneous 5-8F tumours were randomly divided into three groups (n = 3 per group). The three groups received intravenous (i.v.) injection with 12 μM FY-35 (dual-target dye), 12 μM FL-35 (single-target dye), and equimolar quantities of free dye, respectively. Fluorescence images were acquired pre-, 2 h, 6 h, 10 h, and 24 h post-injection. The mice in each group were euthanised. The heart, lung, liver, pancreas, spleen, kidney, intestine, and tumour tissues were collected for ex vivo imaging. The MFI was analysed to determine organ biodistribution and tumour selectivity in the three groups. The TBR was calculated by drawing regions of interest within the tumour region and ipsilateral auricle of each mouse.

[2] = test system: 5-8F tumours; assay: Minimal size of detectable subcutaneous tumours by fluorescence imaging; conditions: 12 μM, n = 8
Protocol: as §1, with “Mice were fed a specific pathogen-free unit, and animal surgery was performed in a sterile hood. Orthotopic tumours were visualised and tracked by bioluminescence imaging (BLI) using an IVIS® Spectrum In Vivo Imaging System (PerkinElmer, Waltham, MA, USA). Specifically, mice received an intraperitoneal injection of 3 mg/mL luciferin bioluminescent substrate (Perkin Elmer, Waltham, MA, USA) 4 min before imaging.” left out
(§2) To identify the minimal size of detectable tumours, subcutaneous tumours of different sizes (1–7 mm; n = 8) were injected with 12 μM FY-35, and imaged at 24 h post-injection to measure MFI in the tumour region. […] Serial sections were cut at a thickness of 10 μm for fluorescence imaging using an inverted microscope (Leica, Wetzlar, Germany), and 4 μm for haematoxylin–eosin (H&E) staining.

[3] = test system: 5-8F-fLuc orthotopic tumours; assay: Fluorescence imaging of orthotopic nasopharyngeal tumours; conditions: orthotopic model, n = 5, i.v. 12 μM, imaged up to 48 h post-injection
Protocol: as §1, with “Mice were fed a specific pathogen-free unit, and animal surgery was performed in a sterile hood. Orthotopic tumours were visualised and tracked by bioluminescence imaging (BLI) using an IVIS® Spectrum In Vivo Imaging System (PerkinElmer, Waltham, MA, USA). Specifically, mice received an intraperitoneal injection of 3 mg/mL luciferin bioluminescent substrate (Perkin Elmer, Waltham, MA, USA) 4 min before imaging.” left out
as §2

## IR800-FL-35: single-targeted peptide FL-35 labelled with IRDye 800CW (FAEKFKEAVKDYFAKFWDGSGSYTYSTPVWVPLWL; also: IRDye 800CW label, site not given here)
[1]; subcutaneous 5-8F tumours
  maximum TBR (tumour-to-background ratio): 5.99

## IR800-FY-35: bispecific peptide FY-35 labelled with IRDye 800CW (FAEKFKEAVKDYFAKFWDGSGLTVSPWYLTVSPWY; also: IRDye 800CW label, site not given here)
[2]; 24 h post-injection
  tumour volume at which the MFI increased remarkably: 32 mm^3
[2]; imaged 24 h post-injection, subcutaneous tumours 1–7 mm
  minimum size of detectable tumours: 3.9 mm
[3]
  retention of optical contrast in the tumour region: 48 h
[1]; at 24 h post-injection
  contrast improved compared to single-targeted tracer (IR800-FL-35): 2.3 fold
[1]; subcutaneous 5-8F tumours
  maximum TBR (tumour-to-background ratio): 13.83
  maximum TBR, fold higher than that of IR800-FL-35: 2.3 fold
